This is an account of results in patent US20220031596A1, “ANTI-AGING AGENT AND ANTI-AGING METHOD” (priority 2018, published 2022).

The structures appear in SMILES notation.

This experiment concerns free thyroxine concentration in the plasma. Put plainly: Evaluation of free thyroxine (T4) secretion promoting effect (plasma free thyroxine, 24-week oral ingestion). The class given is in vivo, human. To be noted: for free thyroxine concentration in the plasma, 0 weeks (before ingestion) / free thyroxine concentration in the plasma, 24 weeks (after ingestion) / free thyroxine concentration in the plasma, Change rate (24 weeks - 0 weeks): High Dose Group (200 mg/daily, oral), mean±SD; for free thyroxine concentration in the plasma, 0 weeks (before ingestion): baseline. The procedure:
In order to confirm a change in the free thyroxine quantity before and after ingestion of the nicotinamide mononucleotide, a test was conducted on healthy males and females aged 50 to 70 years.
As a sample of Working Example 5, a capsule formulation containing the nicotinamide mononucleotide and starch (200 mg of the nicotinamide mononucleotide in 4 capsules) (manufactured by SHINKOWA PHARMACEUTICAL Co., Ltd.) was used.
Each group consisting of five healthy males and females aged 50 to 70 years in an unbiased age group ingested the above high dose capsule formulation once a day by 4 capsules for 24 weeks (total 10 subjects, 200 mg/daily ingestion). In order to conduct appropriate evaluations, those who had been regularly using medical products for chronic diseases, those who had been consuming healthy foods that may affect clinical research, and those who were currently participating in other clinical researches or clinical trials or had participated in other clinical researches or clinical trials within the last three months were excluded from the subject for the evaluation. The capsule formulations were ingested at 10 am (between meals and fasting state) together with water or lukewarm water (oral administration).
Measurement of the free thyroxine quantity in the plasma was conducted by requesting the measurement to an external public organization according to a usual method. FIGS. 10a to 10c indicate transitions of the free thyroxine concentration (ng/dl) in the plasma for 24 weeks. FIG. 10a represents the transitions of the whole subjects; FIG. 10b represents the transitions of the male subjects; FIG. 10c represents the transitions of the female subjects. Further, FIGS. 11a to 11c indicate change rates (%) of the blood free thyroxine concentration up to 24 weeks when the nicotinamide mononucleotide was orally administered to the subjects for 24 weeks. FIG. 11a represents the change rates of the whole subjects; FIG. 11b represents the change rates of the male subjects; FIG. 11c represents the change rates of the female subjects. Further, Table 5 indicates the numerical values of the free thyroxine concentration (ng/dl) in the plasma before the ingestion of the nicotinamide mononucleotide (0 weeks) and after the ingestion of the nicotinamide mononucleotide (24 weeks). Note that the numerical values represent mean values±standard deviation.

In the case of `NC(=O)c1ccc[n+]([C@@H]2O[C@H](COP(=O)([O-])O)[C@@H](O)[C@H]2O)c1` [nicotinamide mononucleotide], where the note is “Female”, the “free thyroxine concentration in the plasma, 0 weeks (before ingestion)” value is 1.10 ± 0.19 ng/dL; the “free thyroxine concentration in the plasma, 24 weeks (after ingestion)” value (shortened to “free thyroxine concentration … (after ingestion)”) was 1.13 ± 0.09 ng/dL; the “free thyroxine concentration in the plasma, Change rate (24 weeks - 0 weeks)” value is 0.03 ± 012 ng/dL. In addition, where the note is “Male”, the “free thyroxine concentration in the plasma, 0 weeks (before ingestion)” value amounted to 1.15 ± 0.19 ng/dL; the “free thyroxine concentration … (after ingestion)” value was 1.22 ± 0.17 ng/dL; the “free thyroxine concentration in the plasma, Change rate (24 weeks - 0 weeks)” value was 0.07 ± 0.15 ng/dL. Where the note is “Whole Subjects”, the “free thyroxine concentration in the plasma, 0 weeks (before ingestion)” value turned out to be 1.13 ± 0.18 ng/dL; the “free thyroxine concentration … (after ingestion)” value came out at 1.18 ± 0.14 ng/dL; the “free thyroxine concentration in the plasma, Change rate (24 weeks - 0 weeks)” value worked out at 0.05 ± 0.13 ng/dL. Also, the “free thyroxine concentrations in the plasma, effect of ingestion (in words)” value (oral, 200 mg/daily, 24 weeks, FIGS. 10a-10c, 11a-11c) is reported as “increased”.
